Source: US20090004137A1, “Uridine Derivatives as Antiviral Drugs Against a Flaviviridae, Especially Hcv” (priority 2004, published 2009)

Tests used:
[1] = Cytotoxicity against VERO cells; type: cell-based; conditions: African green monkey
[2] = Cell viability (neutral red) on the replicon system; type: cell-based; conditions: human, Huh7 cells harbouring the subgenomic HCV replicon BM4-5, neutral red test, drug renewed daily for three days, read-out: CC50, cytotoxicity on Replicon System
Protocol: (§1) Antiviral and Cytotoxicity assays for HCV. Huh7 cells harbouring the subgenomic HCV replicon BM4-5 (J. T. Guo et al., J. Virol. 2001, 75: 8516-8523) were used in this study. Cells were maintained in Dulbecco's modified Eagle's medium high glucose 4.5 g/l (LifeTechnlogies) supplemented with 10% fetal bovine serum, 1% L-glutamine, 1% penicillin and streptomycin, 1% L-Pyruvate and 500 μg/ml of geneticien (G418, Invitrogen). Geneticin was used to select cells permitting the HCV RNA replication. Cells were passaged every four days with a 1:4 ratio.
For cell viability assays, cells were seeded in 96-well plates at a density of 12,500 cells per well. They were treated by the different molecules with the same concentrations and conditions than those used for the antiviral assays. Then, cell viability was measured by neutral red assay. Neutral red specifically colors lysosomes and its accumulation depends on cellular membrane integrity. The yield of neutral red incorporated in cells is proportional to the number of living cells. At the end of treatment, culture medium was removed; cells were washed by PBS, then coloured with neutral red at 0.005% for 3 hours at 37° C. Cells were then fixed 1 minute by formol calcium and lysed by atreatment with a vol/vol mixture of acetic acid and ethanol. After 15 minutes incubation, absorbance was read at 490 nm.

[3] = tested on: subgenomic HCV replicon BM4-5 in Huh7 cells; test: Antiviral assay on HCV subgenomic replicon, Northern blot of (+)-strand HCV RNA; type: cell-based, Hepatitis C Virus; conditions: for IC50 / IC90: Hepatitis C virus, 72 h, Huh7 BM4-5 replicon, positive strand HCV RNA by Northern blot, three days treatment; for IC50: read-out: IC50, anti-HCV activity, (+)-RNA; for IC90: read-out: IC90, anti-HCV activity, (+)-RNA; for Selectivity Index (SI), ratio between CC50 and IC50: replicon system
Protocol: as §1
Cells were seeded in 6-wells plates at a density of 2.5×10^5 cells per well, sixteen hours before the beginning of treatment. […] The administration of each drug was renewed every day for three consecutive days. Ribarivin (ICN Pharmaceuticals), mycophenolic acid (MPA, Sigma), and interferon alpha-2b (IntronA®)) were used in the same conditions as positive controls. The concentrations used for these drugs were respectively: 0; 0.5; 1; 2; 4; 8; 16; 32; 64; 128; 256 and 512 μM for ribavirin, 0; 2.5; 5; 10; 20; 40 μM for mycophenolic acid, and 0; 0.1; 1; 10; 100 and 1000 Ul/mL for IFN alpha-2b. Total RNA was extracted at the end of treatment (24 hours after the last day of treatment) with the <<Extract all>> reagent (Eurobio), which is a mix of phenol and guanidium thiocyanate. Northern blot analysis was then performed using the NorthernMax™-Gly kit (Ambion), following manufacturer's instructions. Five micrograms of total RNA were denaturated in glyoxal buffer at 50° C. for 30 minutes, separated by 1.1% agarose gel electrophoresis, and then transferred for 12 hours onto a charged nylon membrane (HybondN+, Amersham). Hybridization was carried out with three different [^32P]CTP-labelled riboprobes obtained by in vitro transcription (Riboprobe in vitro transcription system, Promega). Two probes were complementary to the NS5A region of the HCV genome of negative polarity and positive polarity. A third probe was complementary to the beta-actin mRNA and obtained by in vitro transcription from a specific plasmid (PTRI beta actin human, reference 7424, Ambion). First, the blot was hybridized with the riboprobes directed against the negative strand of HCV RNA and beta-actin mRNA, respectively. After one night of hybridization at 68° C., the membrane was washed, then exposed to X-ray film and a phosphor screen (phosphorimager). This screen was then scanned and quantitative analysis was achieved using ImageQuant software. The amount of beta-actin mRNA was used as an internal loading control to standardize the amount of HCV RNA detected. The same membrane was subsequently hybridized with the […] to determine the level of positive strand HCV RNA, suing the same approach.

[4] = Cytotoxicity against CEM cells; type: cell-based; conditions: human
[5] = Cytotoxicity against PBM cells; type: cell-based; conditions: human

melting point | Compound | CC50 [1] | CC50 at 3 days [2] | IC50 [3] | IC90 [3] | Selectivity Index (SI), ratio between CC50 and IC50 [3] | CC50 [4] | CC50 [5]
79 to 81 °C | CC(=O)OC[C@H]1O[C@@H](n2cc(C(Br)=CBr)c(=O)[nH]c2=O)C[C@@H]1OC(C)=O | – | – | – | – | – | – | –
83 to 85 °C | CC(=O)OC[C@H]1O[C@@H](n2cc(/C(Br)=C\Br)c(=O)[nH]c2=O)[C@H](OC(C)=O)[C@@H]1OC(C)=O | – | – | – | – | – | – | –
78 to 80 °C | CC(=O)OC[C@@H]1C[C@@H](OC(C)=O)[C@H](n2cc(C(Br)=CBr)c(=O)[nH]c2=O)O1 | – | – | – | – | – | – | –
175 to 177 °C (dec.) | CC(=O)OC[C@H]1O[C@@H](n2cc(C#CI)c(=O)[nH]c2=O)C[C@@H]1OC(C)=O | – | – | – | – | – | – | –
100 to 102 °C | CC(=O)OC[C@H]1O[C@@H](n2cc(C#CI)c(=O)[nH]c2=O)[C@H](OC(C)=O)[C@@H]1OC(C)=O | – | – | – | – | – | – | –
76 to 78 °C | CC(=O)OC[C@H]1O[C@@H](n2cc(/C(I)=C\I)c(=O)[nH]c2=O)C[C@@H]1OC(C)=O | – | – | – | – | – | – | –
83 to 85 °C | CC(=O)OC[C@H]1O[C@@H](n2cc(/C(I)=C\I)c(=O)[nH]c2=O)[C@H](OC(C)=O)[C@@H]1OC(C)=O | – | – | – | – | – | – | –
75 to 77 °C | CC(=O)OC[C@@H]1C[C@@H](OC(C)=O)[C@H](n2cc(/C(I)=C\I)c(=O)[nH]c2=O)O1 | – | – | – | – | – | – | –
82 to 84 °C | CC(=O)OC[C@H]1O[C@@H](n2cc(/C(Br)=C\I)c(=O)[nH]c2=O)C[C@@H]1OC(C)=O | – | – | – | – | – | – | –
86 to 88 °C | CC(=O)OC[C@H]1O[C@@H](n2cc(/C(Br)=C\I)c(=O)[nH]c2=O)[C@H](OC(C)=O)[C@@H]1OC(C)=O | – | – | – | – | – | – | –
– | O=c1[nH]c(=O)n([C@@H]2O[C@H](CO)[C@@H](O)[C@H]2O)cc1C#CI [Compound 12b, 5-(2-Iodoethynyl)-uridine] | > 100 µM | 148 µM | > 200 µM | > 200 µM | <1 | > 100 µM | > 100 µM
– | O=c1[nH]c(=O)n([C@@H]2O[C@H](CO)C[C@H]2O)cc1C#CI [Compound 12c, 5-(2-Iodoethynyl)-3′-deoxyuridine] | 3.2 µM | > 200 µM | > 200 µM | > 200 µM | ≦1 | > 100 µM | > 100 µM
– | O=c1[nH]c(=O)n([C@H]2C[C@H](O)[C@@H](CO)O2)cc1C#CBr [Compound 13a, 5-(2-Bromoethynyl)-2′-deoxyuridine] | > 100 µM | > 200 µM | > 200 µM | > 200 µM | ≧1 | > 100 µM | > 100 µM
– | O=c1[nH]c(=O)n([C@@H]2O[C@H](CO)C[C@H]2O)cc1C#CBr [Compound 13c, 5-(2-Bromoethynyl)-3′-deoxyuridine] | 6.4 µM | > 300 µM | > 300 µM | > 300 µM | ≦1 | > 100 µM | > 100 µM
– | O=c1[nH]c(=O)n([C@@H]2O[C@H](CO)C[C@H]2O)cc1/C(I)=C\I [Compound 14c, (E)-5-(1,2-Diiodovinyl)-3′-deoxyuridine] | 42.6 µM | > 200 µM | > 200 µM | > 200 µM | ≦1 | > 100 µM | 87.2 µM
– | O=c1[nH]c(=O)n([C@H]2C[C@H](O)[C@@H](CO)O2)cc1/C(Br)=C\I [Compound 15a, (E)-5-(1-Bromo-2-iodovinyl)-2′-deoxyuridine] | 6.6 µM | 43 µM | > 100 µM | > 100 µM | <1 | 0.13 µM | 13.3 µM
– | O=c1[nH]c(=O)n([C@@H]2O[C@H](CO)[C@@H](O)[C@H]2O)cc1/C(Br)=C\I [Compound 15b, (E)-5-(1-Bromo-2-iodovinyl)-uridine] | > 100 µM | > 100 µM | > 100 µM | > 100 µM | ≦1 | 93.6 µM | > 100 µM
– | O=c1[nH]c(=O)n([C@H]2C[C@H](O)[C@@H](CO)O2)cc1/C(Cl)=C\I [Compound 16a, (E)-5-(1-Chloro-2-iodovinyl)-2′-deoxyuridine] | 1.4 µM | 213 µM | 79.8 µM | > 207 µM | 2.7 | 14.8 µM | 3.2 µM
– | O=c1[nH]c(=O)n([C@@H]2O[C@H](CO)C[C@H]2O)cc1/C(Cl)=C\I [Compound 16c, (E)-5-(1-Chloro-2-iodovinyl)-3′-deoxyuridine] | 15.3 µM | > 200 µM | > 200 µM | > 200 µM | ≦1 | 66.6 µM | 94.4 µM
– | O=c1[nH]c(=O)n([C@H]2C[C@H](O)[C@@H](CO)O2)cc1/C(Br)=C\Br [Compound 17a, (E)-5-(1,2-Dibromovinyl)-2′-deoxyuridine] | > 100 µM | > 200 µM | < 200 µM | > 200 µM | ≧1 | 43.9 µM | > 100 µM
– | O=c1[nH]c(=O)n([C@@H]2O[C@H](CO)[C@@H](O)[C@H]2O)cc1/C(Br)=C\Br [Compound 17b, (E)-5-(1,2-Dibromovinyl)-uridine] | 59.8 µM | > 200 µM | > 200 µM | > 200 µM | ≦1 | > 100 µM | > 100 µM
– | O=c1[nH]c(=O)n([C@@H]2O[C@H](CO)C[C@H]2O)cc1/C(Br)=C\Br [Compound 17c, (E)-5-(1,2-Dibromovinyl)-3′-deoxyuridine] | 7.8 µM | > 200 µM | > 200 µM | > 200 µM | ≦1 | 79.3 µM | > 100 µM
– | COc1c(C)c2c(c(O)c1C/C=C(\C)CCC(=O)O)C(=O)OC2 [MPA, mycophenolic acid, reference compound] | – | 7 µM | 40 µM | – | <1 | – | –

Compound | melting point | CC50 [1] | CC50 at 3 days [2] | IC50 [3] | IC90 [3] | Selectivity Index (SI), ratio between CC50 and IC50 [3] | CC50 [4] | CC50 [5]
O=c1[nH]c(=O)n([C@H]2C[C@H](O)[C@@H](CO)O2)cc1C#CI [Compound 12a, 5-(2-Iodoethynyl)-2′-deoxyuridine] | 135 to 137 °C | > 100 µM | > 182 µM | 57.1 µM | > 239 µM | >3.2 | 15.8 µM | 7.5 µM
O=c1[nH]c(=O)n([C@H]2C[C@H](O)[C@@H](CO)O2)cc1/C(I)=C\I [Compound 14a, (E)-5-(1,2-Diiodovinyl)-2′-deoxyuridine] | 103 to 105 °C | 19.5 µM | 76.7 µM | > 161 µM | > 263 µM | <1 | 19.5 µM | 14.7 µM
O=c1[nH]c(=O)n([C@@H]2O[C@H](CO)[C@@H](O)[C@H]2O)cc1/C(I)=C\I [Compound 14b, (E)-5-(1,2-Diiodovinyl)-uridine] | 107 to 109 °C | 49.5 µM | > 250 µM | 162 µM | > 250 µM | >1.5 | 41.7 µM | > 100 µM
